The source of these data is patent US4861897A, “2-Aryloxyalkylaminobenzoxazoles and 2-aryloxyalkylaminobenzothiazoles” (Ortho Pharmaceutical Corporation, priority 1987, dated 1989).

The subject of test [1] is histamine stimulated parietal cell. As to the kind of experiment: Isolated parietal cell assay, inhibition of 14C-aminopyrine accumulation, histamine stimulated. The class given is cell-based, rabbit. The settings on record: Oryctolagus cuniculus, 20 min, Example 48, 37° C., read-out: IC50 vhist (inhibition of 14C-AP accumulation in histamine stimulated parietal cell). As to the method:
(§1) Isolated Parietal Cell Assay
(§2) The isolated parietal cell assay was conducted using the procedures of Batzri, S. et al., Biochemica et Biophysica Acta 508, 328 (1978) and Soll, A. H. Am. J. Physiol. 238, G366 (1980). Basically, parietal cells were isolated from the fundic mucosa of rabbit stomachs by a four-stage collagenase digestion process. The supernatant fractions from the last two stages of this process contain the individual parietal cells. This cell suspension was centrifuged and reconstituted in a modified Hank's buffer to contain 1-2×10^6 cells/ml. […] This accumulation was stimulated by histamine and was blocked by H2 antagonists. The cells were incubated with 0.4-0.5×10^6 cpm ^14 C-AP, with various concentrations of histamine as a stimulant, 1×10^-5 M isobutylmethylxanthine, and the test compound added in a 20 μl volume of buffer or DMSO. The flasks were incubated in a shaking water bath at 37° C. for 20 minutes. Two aliquots were then taken from each flask and cell pellets were collected by centrifugation. The pellets were solubilized with Protosol (New England Nuclear) and radioactivity determined by liquid scintillation spectrometry. Data is presented as the IC50 vhist, the concentration of compound required to inhibit ^14 C-AP accumulation in the histamine stimulated parietal cell by 50%. When dibutyryl cAMP was used to stimulate the cells instead of histamine, a similar inhibition of ^14 C-AP accumulation was measured and the data are presented as the IC50 vcAMP, the concentration required to inhibit ^14 C-AP accumulation in the cAMP stimulated parietal cells by 50%.

The subject of test [2] is cAMP stimulated parietal cells. As to the kind of experiment: Isolated parietal cell assay, inhibition of 14C-aminopyrine accumulation, dibutyryl cAMP stimulated. It is filed as cell-based, rabbit. The settings on record: Oryctolagus cuniculus, 20 min, Example 48, 37° C., read-out: IC50 vcAMP (inhibition of 14C-AP accumulation in cAMP stimulated parietal cells). As to the method:
as §1, §2

For test [3], the target named is T1, parietal cell H^+ K^+ ATPase (Oryctolagus cuniculus, UniProt P27112).
T1 construct: determined in fundic mucosa from New Zealand white rabbits which were homogenized; from tissue; host or cells: fundic mucosa of New Zealand white rabbits, homogenized; membrane protein
T1 sequence (P27112 2-1035 limits assumed): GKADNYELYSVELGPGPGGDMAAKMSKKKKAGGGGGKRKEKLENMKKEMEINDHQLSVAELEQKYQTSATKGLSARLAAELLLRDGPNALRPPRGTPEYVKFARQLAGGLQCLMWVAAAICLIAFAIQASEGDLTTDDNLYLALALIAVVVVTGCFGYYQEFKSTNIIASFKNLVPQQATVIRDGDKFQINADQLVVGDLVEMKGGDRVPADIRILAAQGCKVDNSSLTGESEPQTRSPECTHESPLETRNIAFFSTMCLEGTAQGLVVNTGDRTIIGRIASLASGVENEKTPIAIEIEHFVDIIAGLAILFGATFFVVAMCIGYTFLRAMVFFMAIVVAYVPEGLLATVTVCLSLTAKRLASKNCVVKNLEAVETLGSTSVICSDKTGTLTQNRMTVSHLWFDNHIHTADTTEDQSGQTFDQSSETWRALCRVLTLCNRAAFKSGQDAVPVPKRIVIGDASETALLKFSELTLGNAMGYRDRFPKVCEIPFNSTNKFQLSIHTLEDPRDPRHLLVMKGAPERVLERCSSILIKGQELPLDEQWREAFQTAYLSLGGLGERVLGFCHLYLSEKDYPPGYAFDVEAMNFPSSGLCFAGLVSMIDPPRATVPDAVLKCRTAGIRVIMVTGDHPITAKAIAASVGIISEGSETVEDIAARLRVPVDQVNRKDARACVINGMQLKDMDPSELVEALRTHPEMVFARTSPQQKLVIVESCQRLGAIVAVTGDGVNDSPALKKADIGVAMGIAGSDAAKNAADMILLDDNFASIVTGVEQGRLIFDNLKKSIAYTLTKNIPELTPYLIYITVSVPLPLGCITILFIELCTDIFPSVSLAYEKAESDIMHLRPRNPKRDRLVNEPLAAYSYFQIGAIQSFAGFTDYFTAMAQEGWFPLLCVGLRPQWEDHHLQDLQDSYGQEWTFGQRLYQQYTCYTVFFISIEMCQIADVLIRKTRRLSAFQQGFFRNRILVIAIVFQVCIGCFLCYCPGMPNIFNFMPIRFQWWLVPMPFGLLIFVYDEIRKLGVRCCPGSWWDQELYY
T1 sequence (P18597 whole entry partner): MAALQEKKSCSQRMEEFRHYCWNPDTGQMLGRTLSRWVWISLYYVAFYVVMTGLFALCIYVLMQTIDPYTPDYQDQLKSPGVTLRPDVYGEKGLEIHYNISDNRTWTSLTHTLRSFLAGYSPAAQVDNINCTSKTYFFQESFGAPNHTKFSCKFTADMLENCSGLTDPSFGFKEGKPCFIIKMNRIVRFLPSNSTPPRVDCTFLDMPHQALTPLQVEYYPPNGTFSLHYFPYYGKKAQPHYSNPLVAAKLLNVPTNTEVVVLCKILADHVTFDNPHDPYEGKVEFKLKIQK
The test can be described thus: Inhibition of parietal cell H+ K+ ATPase. It is filed as biochemical, New Zealand white rabbits. The settings on record: Example 49; for IC50: given as "50% @ x μM", read-out: % Inhibition at Concentration (H+ K+ ATPase): concentration given for 50% inhibition. On the procedure: Inhibition of Parietal Cell H^+ K^+ ATPase
The activity was measured in a 1 ml incubation volume containing 50 mM Tris pH 7.4, 2 mM MgCl2, 2 mM Na2 ATP, with or without 20 mM KCl and vehicle control (dimethylsulfoxide) or test compound added in a 0.02 ml volume. Typically, 20-50 μg membrane protein was added and the tubes were preincubated with test compound for 10 minutes at 37° C. Substrate, Na2 ATP, was then added and the tubes were incubated for another 15 minutes at 37° C. The reaction was stopped by the addition of 1 ml 14% trichloroacetic acid and the samples were centrifuged at 2,000 xg for 10 minutes. The amount of inorganic phosphate present in an aliquot of supernatant was determined. H^+ K^+ ATPase activity was determined after correcting for the basal (Mg^++ only) enzyme activity present in the membrane preparation.

The test system of the next test is acid output. As to the kind of experiment: Gastric secretion, acid output in pylorus ligated rats. It is filed as in vivo, male Charles River Sprague Dawley derived rats. The settings on record: Example 50, i.d. or s.c., four hours after pylorus ligation, compared to control; for response vs control in vivo at 20 mg/kg: Rattus norvegicus, 4 h, @ 20 mpK, read-out: % Acid Secreted at mpK. As to the method:
The inhibitory activity of the compounds on acid output was tested using pylorus ligation in a modification of the procedure of Shay, H. et al., Gastroenterology 26, 906 (1954). Basically, male Charles River Sprague Dawley derived rats weighing 150-300 grams were deprived of food but not water for 18-24 hours prior to use. Water was withheld during the experiment, however. The rats were weighed, anesthetized with ether and the pylorus ligated according to the method of Shay et al., supra. Treatment or vehicle control was then administered intraduodenally (i.d.) or subcutaneously (s.c.). Rats were housed two/cage and sacrificed with CO2 four hours after ligation. The stomachs were removed, rinsed, and contents emptied into a graduated centrifuge tube. The tubes were centrifuged, the volume of gastric juice recorded, and any samples obviously contaminated by feces, food or blood were eliminated. A 1 ml aliquot of gastric juice was titrated with 0.1N NaOH to a pH of 7.0-7.4. The volume of gastric juice secreted, the acid concentration, and the product of the volume times the concentration, i.e., the total amount of acid secreted, were measured.

Take `CCCN(CCC)CCCCOc1cccc(/C=C/c2nc3ccccc3o2)c1` [Example 5]: the IC50 in test [1] was determined as 120 nM; in test [2], 310 nM; in test [3] it was 14 µM. Further, the “% Acid Secreted at mpK” value in the test with acid output (@ 10 mpK) was 25%. The response vs control in vivo at 20 mg/kg in the test on acid output is 74%.
`C(=C\c1nc2ccccc2o1)/c1ccc(OCCCCN2CCCCC2)cc1` [Example 19]: the IC50 in test [1] came to 170 nM; in test [2] it was 330 nM; in test [3] it was 40 µM. In addition, the response vs control in vivo at 20 mg/kg in the test with acid output worked out at 42%.
Turning to `CCCCN(CCCC)CCCOc1cccc(/C=C/c2nc3ccccc3s2)c1` [Example 25], the IC50 in test [1] stood at 200 nM; in test [2] it was 330 nM. The inhibition at 100 µM in test [3] (@ 10^-4 M, read-out: % Inhibition at Concentration (H+ K+ ATPase)) was determined as 61%. In addition, the response vs control in vivo at 20 mg/kg in the test on acid output is 40%.
Regarding `CCCN(CCC)CCCOc1cccc(/C=C/c2nc3ccccc3o2)c1` [Example 3, (E)-2-[2-(3-Dipropylaminopropoxyphenyl)ethyenyl]benzoxazole], the IC50 in test [1] turned out to be 200 nM; in test [2] it was 240 nM; in test [3], 29 µM. Further, the response vs control in vivo at 20 mg/kg with acid output stood at 49%.
